Like-named read-outs stand apart in the source and are kept apart here.
Tests used:
NF-κB [1] = system: NF-κB; design: method as in PMID 15911030; details: comparison data, cited from earlier work
HIV-1 Tat protein [2] = system: HIV-1 Tat protein; design: method as in PMID 15911030; details: comparison data; cited from earlier work
[3] = system: tetracycline-induced luciferase activity in HeLa-Tet-ON cells; design: method as in PMID 15911030; key: S: specific; U: unspecific modes of action; details: comparison data; cited from earlier work
HIV-1 [4] = system: HIV-1; design: method as in PMID 15911030; details: comparison data; read-out: RV (VIH) IC50; cited from earlier work
non-infected MT-2 cells [5] = system: non-infected MT-2 cells; design: method as in PMID 15911030; details: comparison data; read-out: Toxicity CC50; cited from earlier work
NF-κB [6] = experiment: 5.1 cell line + TNFα, HIV-LTR luciferase (NF-κB activation); type: cell-based
From the text: (§1) In the characterization of anti-HIV activity, the effect of these coumarins on Tat and NF-κB functions has been evaluated in a similar manner as we described in a previous publication. We have used two transfected 5.1 cell lines, in which we measured NF-κB activation induced by TNFα [42] and HeLa-Tat-Luc cells, in which the HIV-1 LTR is directly activated by the HIV-1 Tat protein. Most of the compounds were submitted for further evaluation through a HeLa-Tet-ON assay in order to determine the selectivity of their action. To avoid missing compounds acting through another mechanism, all substances were also evaluated using a recombinant virus (RV) assay. In this system, a luciferase reporter gene was cloned in full-length infectious DNA. As a result, the measured luciferase activity is therefore proportional to viral replication.
(§2) The anti-HIV activity of these coumarins on Tat and NF-κB functions has been analysed. To this aim, we have used two stably transfected cell lines. The previously described 5.1 cell line is a Jurkat-derived clone stably transfected with a plasmid containing the luciferase gene under the control of HIV-LTR. In this cell clone, activation with TNFα induces NF-κB activation and subsequent HIV-1 expression. We have also analyzed the anti-HIV activity in HeLa-Tat-Luc cells, in which the HIV-1 LTR is directly activated by the HIV-1 Tat protein. A compound was considered active in one assay if it inhibited the target function by more than 50% (NF-κB) or 30% (Tat) at either 25 or 50 μM concentration. The active compounds were submitted for further evaluation through a HeLa-Tet-ON assay, as previously described. In the Hela-Tet-ON cells the luciferase expression is under control of an artificial promoter that can be activated by tetracycline. Therefore, compounds that inhibit tetracycline-induced luciferase activity were considered non-specific for luciferase-based anti-HIV assays and were not examined further, and those showing specific activity (non-inhibitors in HeLa-Tet-ON cells) were analysed using a recombinant virus (RV) assay. […] In this system, a luciferase reporter gene has been cloned in full-length infectious DNA. The measured luciferase activity is therefore directly proportional to the replication of the virus. This assay is more sensitive and reliable than classic infectious assays. Cell viability was evaluated in non-infected treated cultures following the same protocol as in the recombinant virus assay and measuring cell toxicity with a classical MTT assay. IC50 and CC50 were calculated using GraphPad Prism software [non-linear regression, log (inhibitor) vs. response].

HIV-1 Tat protein [7] = experiment: HeLa-Tat-Luc cells, HIV-1 LTR activated by Tat; type: cell-based
From the text: as §1, §2

[8] = system: tetracycline-induced luciferase activity in HeLa-Tet-ON cells; experiment: HeLa-Tet-ON specificity assay; type: cell-based; design: key: S: specific; U: unspecific modes of action
From the text: as §1, §2

HIV-1 [9] = experiment: Recombinant virus (RV) assay, luciferase reporter virus on MT-2 cells; type: cell-based; details: Human immunodeficiency virus 1, MT2, read-out: RV (VIH) IC50
Experimental: We have synthesized fourteen 3-phenylcoumarin derivatives and evaluated their anti-HIV activity. Antiviral activity was assessed on MT-2 cells infected with viral clones carrying the luciferase gene as reporter. Inhibition of HIV transcription and Tat function were tested on cells stably transfected with the HIV-LTR and Tat protein. […] The antiviral effect of the 4-hydroxycoumarin derivative 19 correlates with its specific inhibition of Tat functions, while compound 8, 3-(2-chlorophenyl)coumarin, seems to act through a mechanism unrelated to the molecular targets considered in this research.
as §1, §2

non-infected MT-2 cells [10] = experiment: Cell viability, MTT assay in non-infected treated cultures; type: cell-based; design: Toxicity (%) CC50: unit not given here; details: MTT, non-infected cultures
From the text: as §2

| Structure (SMILES) | Antiviral activity 5.1 + TNFα 25 µM (NF-κB [1]; 25 µM) | Antiviral activity 5.1 + TNFα 50 µM (NF-κB [1]; 50 µM) | Antiviral activity Hela-Tat-luc 50 µM (HIV-1 Tat protein [2]) | HeLa-Tet-ON 50 µM (specific / unspecific) [3] | IC50 (HIV-1 [4]) | CC50 (non-infected MT-2 cells [5]) | inhibitory activity in the NF-κB test, in words (NF-κB [6]; 50 µM) | inhibition at 50 µM (NF-κB [6]; read-out: Antiviral activity 5.1 + TNFα 50 µM (inhibition of NF-κB function)) | specificity of NF-κB inhibition, in words (NF-κB [6]; with HeLa-Tet-ON evaluation) | inhibition at 25 µM (HIV-1 Tat protein [7]; Human immunodeficiency virus 1, read-out: Antiviral activity Hela-Tat-luc 25 µM (inhibition of Tat function)) | inhibition at 50 µM (HIV-1 Tat protein [7]; Human immunodeficiency virus 1, read-out: Antiviral activity Hela-Tat-luc 50 µM (inhibition of Tat function)) | HeLa-Tet-ON 50 µM (specific / unspecific mode of action) [8] | IC50 (HIV-1 [9]) | Toxicity (%) CC50 (non-infected MT-2 cells [10]) | melting point |
| --- | --- | --- | --- | --- | --- | --- | --- | --- | --- | --- | --- | --- | --- | --- | --- |
| CC(C)=CCc1c(O)c(C(=O)C(C)C)c(O)c2c(-c3ccccc3)cc(=O)oc12 [Mesuol] | 71.0 ± 4.8% | 77.9 ± 4.9% | 71.3 ± 8.9% | S | 2.5 µM | > 4 µM |  |  |  |  |  |  |  |  |  |
| COc1cc(-c2cc3ccccc3oc2=O)cc(OC)c1OC [Compound 15, 3-(3,4,5-Trimethoxyphenyl)-2H-chromen-2-one] |  |  |  |  |  |  | fair inhibitory activity | 49.7 ± 7% | unspecific | 47.6 ± 6.2% | 35.1 ± 3.9% | U | 62.7 ± 13.1 µM | 42.8 ± 16.2 | 122 to 124 °C |

From article PMC6268528, “3-Phenylcoumarins as Inhibitors of HIV-1 Replication” (Molecules, 2012)
